Patent US10526327B2, “Histone demethylase inhibitors” (CELGENE QUANTICEL RESEARCH, INC., priority 2013, dated 2020)

biological target: T1, Jarid1A (Homo sapiens, UniProt P29375); assay: Jarid1A in vitro enzyme inhibition assay (TR-FRET); format: biochemical
T1 construct: purchased BPS Bioscience 50110
T1 sequence (P29375 1-1090): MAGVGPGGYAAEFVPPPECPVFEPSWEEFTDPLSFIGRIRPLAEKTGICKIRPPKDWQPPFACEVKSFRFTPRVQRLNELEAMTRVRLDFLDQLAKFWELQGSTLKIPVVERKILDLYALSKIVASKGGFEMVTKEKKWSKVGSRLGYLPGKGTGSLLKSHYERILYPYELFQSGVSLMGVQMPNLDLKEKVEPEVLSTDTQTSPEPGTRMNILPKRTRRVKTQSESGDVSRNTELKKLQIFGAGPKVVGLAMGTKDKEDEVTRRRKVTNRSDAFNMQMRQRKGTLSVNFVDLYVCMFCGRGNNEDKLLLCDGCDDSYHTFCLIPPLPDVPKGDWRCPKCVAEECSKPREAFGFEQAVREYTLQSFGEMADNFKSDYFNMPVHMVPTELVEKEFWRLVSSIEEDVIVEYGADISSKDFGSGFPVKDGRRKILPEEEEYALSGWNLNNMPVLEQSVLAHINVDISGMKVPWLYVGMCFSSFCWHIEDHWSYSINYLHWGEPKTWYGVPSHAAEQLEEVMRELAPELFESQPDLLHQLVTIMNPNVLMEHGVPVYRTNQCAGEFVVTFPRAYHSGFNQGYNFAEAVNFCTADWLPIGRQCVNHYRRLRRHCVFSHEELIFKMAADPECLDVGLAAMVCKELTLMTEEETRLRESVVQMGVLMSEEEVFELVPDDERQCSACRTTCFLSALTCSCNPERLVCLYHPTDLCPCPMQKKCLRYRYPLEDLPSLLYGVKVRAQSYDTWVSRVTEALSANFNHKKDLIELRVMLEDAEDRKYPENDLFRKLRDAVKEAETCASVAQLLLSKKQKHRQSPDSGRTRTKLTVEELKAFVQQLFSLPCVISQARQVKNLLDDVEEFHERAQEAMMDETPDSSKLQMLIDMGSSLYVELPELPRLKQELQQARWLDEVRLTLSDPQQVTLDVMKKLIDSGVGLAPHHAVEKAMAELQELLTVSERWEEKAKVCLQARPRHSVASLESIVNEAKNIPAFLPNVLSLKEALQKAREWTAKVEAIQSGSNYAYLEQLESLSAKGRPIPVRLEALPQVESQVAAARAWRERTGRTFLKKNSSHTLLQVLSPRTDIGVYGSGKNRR
Description: This assay determines the ability of a test compound to inhibit Jarid1A, Jarid1B, and JMJD2C demethylase activity. Baculovirus expressed Jarid1A (GenBank Accession #NM_001042603, AA1-1090) was purchased from BPS Bioscience (Cat#50110). Baculovirus expressed Jarid1B (GenBank Accession #NM_006618, AA 2-751) was purchased from BPS Bioscience (Cat #50121) or custom made by MolecularThroughput. Baculovirus expressed JMJD2C (GenBank Accession #BC143571, AA 2-372) was purchased from BPS Bioscience (Cat#50105).
The enzymatic assay of Jarid1A activity is based upon Time Resolved-Fluorescence Resonance Energy Transfer (TR-FRET) detection. The ability of test compounds to inhibit the activity of Jarid1A was determined in 384-well plate format under the following reaction conditions: 1 nM Jarid1A, 300 nM H3K4me3-biotin labeled peptide (Anaspec cat #64357), 2 μM alpha-ketoglutaric acid in assay buffer of 50 mM HEPES, pH7.3, 0.005% Brij35, 0.5 mM TCEP, 0.2 mg/ml BSA, 50 μM sodium L-ascorbate, and 2 μM ammonium iron(II) sulfate. Reaction product was determined quantitatively by TR-FRET after the addition of detection reagent Phycolink Streptavidin-allophycocyanin (Prozyme) and Europium-anti-mono-or di-methylated histone H3 lysine 4 (H3K4me1-2) antibody (PerkinElmer) in the presence of 5 mM EDTA in LANCE detection buffer (PerkinElmer) at a final concentration of 25 nM and 1 nM, respectively.
The assay reaction was initiated by the following: 2 μl of the mixture of 900 nM H3K4me3-biotin labeled peptide and 6 μM alpha-ketoglutaric acid with 2 μl of 11-point serial diluted inhibitor in 3% DMSO was added to each well of plate, followed by the addition of 2 μl of 3 nM Jarid1A to initiate the reaction. The reaction mixture was incubated at room temperature for 30 minutes, and terminated by the addition of 6 μl of 5 mM EDTA in LANCE detection buffer containing 50 nM Phycolink Streptavidin-allophycocyanin and 2 nM Europium-anti-H3K4me1-2 antibody. Plates were read by EnVisionMultilabel Reader in TR-FRET mode (excitation at 320 nm, emission at 615 nm and 665 nm) after 1 hour incubation at room temperature. A ratio was calculated (665/615) for each well and fitted to determine inhibition constant (IC50).

Structure (SMILES) | IC50 [nM]
Oc1nc(OC2CCCC2)nc2cnccc12 [Example 6, 2-cyclopentyloxy-3H-pyrido[3,4-d]pyrimidin-4-one] | 100 to 1000
CCC(C)Oc1nc(O)c2ccncc2n1 (stereo not shown) [Example 9, 2-butan-2-yloxy-3H-pyrido[3,4-d]pyrimidin-4-one] | 1000 to 10000
O=C(c1cc(F)cc(Oc2nc(O)c3ccncc3n2)c1)N1CCOCC1 [Example 60] | ≤ 100
COCCn1ncc2ccc(Oc3nc(O)c4ccncc4n3)cc21 [Example 61, 2-{[1-(2-methoxyethyl)-1H-indazol-6-yl]oxy}pyrido[3,4-d]pyrimidin-4-ol] | ≤ 100
CCn1cc(Oc2nc(O)c3ccncc3n2)cn1 [Example 62, 2-[(1-ethyl-1H-pyrazol-4-yl)oxy]pyrido[3,4-d]pyrimidin-4-ol] | ≤ 100
CC(C)n1cc(Oc2nc3cnccc3c(=O)[nH]2)cn1 [Example 63, 2-{[1-(propan-2-yl)-1H-pyrazol-4-yl]oxy}pyrido[3,4-d]pyrimidin-4-ol] | ≤ 100
COCCn1cc(Oc2nc(O)c3ccncc3n2)cn1 [Example 64, 2-{[1-(2-methoxyethyl)-1H-pyrazol-4-yl]oxy}pyrido[3,4-d]pyrimidin-4-ol] | ≤ 100
COCCCn1cc(Oc2nc(O)c3ccncc3n2)cn1 [Example 65, 2-{[1-(3-methoxypropyl)-1H-pyrazol-4-yl]oxy}pyrido[3,4-d]pyrimidin-4-ol] | ≤ 100
Oc1nc(Oc2cnn(C3CCOCC3)c2)nc2cnccc12 [Example 67, 2-{[1-(tetrahydro-2H-pyran-4-yl)-1H-pyrazol-4-yl]oxy}pyrido[3,4-d]pyrimidin-4-ol] | ≤ 100
COc1nc(O)c2ccnc(-c3cn(C)cn3)c2n1 [Example 68, 2-methoxy-8-(1-methyl-1H-imidazol-4-yl)pyrido[3,4-d]pyrimidin-4-ol] | ≤ 100
CN(C)CCOc1nc(O)c2ccnc(-c3cn(C)cn3)c2n1 [Example 76, 2-[2-(dimethylamino)ethoxy]-8-(1-methylimidazol-4-yl)pyrido[3,4-d]pyrimidin-4-ol] | 100 to 1000
Cn1cnc(-c2nccc3c(O)nc(OCC(F)F)nc23)c1 [Example 77, 2-(2,2-difluoroethoxy)-8-(1-methylimidazol-4-yl)pyrido[3,4-d]pyrimidin-4-ol] | ≤ 100

Results, then the molecule that gave them:

IC50 [nM] | Structure (SMILES)
≤ 100 | OCCOc1nc(O)c2ccncc2n1 [Example 3, 2-(2-hydroxyethoxy)pyrido[3,4-d]pyrimidin-4-ol]
≤ 100 | COc1nc(O)c2ccncc2n1 [Example 8, 2-methoxypyrido[3,4-d]pyrimidin-4-ol]
≤ 100 | CC(C)(C)OC(=O)Nc1cccc(Oc2nc(O)c3ccncc3n2)c1 [Example 36, tert-butyl N-[3-(4-hydroxypyrido[3,4-d]pyrimidin-2-yl)oxyphenyl]carbamate]
≤ 100 | COc1ccc(Oc2nc(O)c3ccncc3n2)cc1OC [Example 38, 2-(3,4-dimethoxyphenoxy)pyrido[3,4-d]pyrimidin-4-ol]
≤ 100 | CC(C)c1cccc(Oc2nc(O)c3ccncc3n2)c1 [Example 39, 2-(3-propan-2-ylphenoxy)pyrido[3,4-d]pyrimidin-4-ol]
≤ 100 | Oc1nc(Oc2cccc(F)c2F)nc2cnccc12 [Example 42, 2-(2,3-difluorophenoxy)pyrido[3,4-d]pyrimidin-4-ol]
≤ 100 | COc1c(F)cc(Oc2nc(O)c3ccncc3n2)cc1F [Example 43, 2-(3,5-difluoro-4-methoxyphenoxy)pyrido[3,4-d]pyrimidin-4-ol]
≤ 100 | Oc1nc(Oc2ccccc2F)nc2cnccc12 [Example 46, 2-(2-fluorophenoxy)pyrido[3,4-d]pyrimidin-4-ol]
≤ 100 | CCCc1cccc(Oc2nc(O)c3ccncc3n2)c1 [Example 58, 2-(3-propylphenoxy)pyrido[3,4-d]pyrimidin-4-ol]
≤ 100 | CN(C)c1ccc(Oc2nc(O)c3ccncc3n2)cc1 [Example 59, 2-[4-(dimethylamino)phenoxy]pyrido[3,4-d]pyrimidin-4-ol]
